# Starred links: 1 amine or outer side, 2 acyl side, 3 side chain; linkers in the order of their positions; H or OH if unused. Positions of bridges follow the written chain, without caps; N, C: chain ends. Non-standard residues stand in square brackets, D forms with d. Residues, ends and D or L forms follow the SMILES beside them. Groups on a side chain read outwards from the residue. *: point of attachment. Trp(1-Me) = Cn1cc(C[C@H](N)C(=O)O)c2ccccc21; C18 diacid = O=C(O)CCCCCCCCCCCCCCCCC(=O)*; C16 diacid = O=C(O)CCCCCCCCCCCCCCC(=O)*; γGlu = O=C(O)[C@H](CCC(=O)[*:2])N[*:1]; AEEA = NCCOCCOCC(=O)O; Sar = CNCC(=O)O
# Assays:
# [1] = tested on: classical complement pathway; assay: In vitro haemolysis assay (inhibition of classical complement pathway); assay type: cell-based, human; conditions: Table 3; human serum, sensitized sheep red blood cells; read-out: IC50[nM], in vitro analysis of inhibition of hemolysis
# In short: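 Serially diluted compound (9 points) was preincubated 15 min at room temperature with diluted human serum, titrated per batch to give 70-90% maximal haemolysis, in Tris/casein buffer pH 7.4 with Mg2+/Ca2+. Antibody-sensitized sheep erythrocytes were then added for 30 min at 37° C, and the reaction was stopped with EDTA. Haemolysis was read at A405, with IC50 from 4PL fit.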
# [2] = Solubility test at 10 mg/mL (visual inspection and light scattering); assay type: physicochemical; conditions: for Solubility, Condition 1 Acetate pH 4: 10 mg/mL compound in 100 mM acetate pH 4; for Solubility, Condition 2 Acetate pH 5: 10 mg/mL compound in 100 mM acetate pH 5; for Solubility, Condition 3 Phosphate pH 6: 10 mg/mL compound in 100 mM phosphate pH 6; for Solubility, Condition 4 Phosphate pH 7: 10 mg/mL compound in 100 mM phosphate pH 7; for Solubility, Condition 5 Phosphate pH 7.5: 10 mg/mL compound in 100 mM phosphate pH 7.5
Compound,IC50 [1],"Solubility, Condition 1 Acetate pH 4 [2]","Solubility, Condition 2 Acetate pH 5 [2]","Solubility, Condition 3 Phosphate pH 6 [2]","Solubility, Condition 4 Phosphate pH 7 [2]","Solubility, Condition 5 Phosphate pH 7.5 [2]"
CC[C@H](C)[C@@H]1NC(=O)[C@@H](NC(=O)CN(C)C(=O)[C@H](CCC(=O)O)NC(=O)[C@H](CO)NC(C)=O)CSSC[C@@H](C(=O)N(C)CC(=O)N[C@@H](CCC(=O)O)C(=O)N[C@@H](C)C(N)=O)NC(=O)[C@H](CCCNC(=N)N)NC(=O)[C@H](Cc2c[nH]cn2)NC(=O)[C@H](CCC(=O)O)NC(=O)CNC(=O)[C@H](Cc2c[nH]c3ccccc23)NC(=O)[C@H](CC(=O)O)NC(=O)[C@H](CCC(N)=O)NC(=O)[C@H](Cc2cn(C)c3ccccc23)NC1=O [Compound 81] (Ac-SE[Sar]CI[Trp(1-Me)]QDWGEHRC[Sar]EA-NH2; disulfide 4-14),< 100 nM,"− (denotes lack of solubility at the given condition, as UV absorbance at 340 nm exceeds 0.1 AU and/or it is visibly turbid or contains particles.)","− (denotes lack of solubility at the given condition, as UV absorbance at 340 nm exceeds 0.1 AU and/or it is visibly turbid or contains particles.)","+ (denotes solubility at the given condition, as determined by UV absorbance being less than 0.1 AU at 340 nm and the sample being clear when manually inspected.)","+ (denotes solubility at the given condition, as determined by UV absorbance being less than 0.1 AU at 340 nm and the sample being clear when manually inspected.)","+ (denotes solubility at the given condition, as determined by UV absorbance being less than 0.1 AU at 340 nm and the sample being clear when manually inspected.)"
CC[C@H](C)[C@@H]1NC(=O)[C@@H](NC(=O)[C@H](Cc2ccccc2)NC(C)=O)CSSC[C@@H](C(=O)N[C@H](C(=O)NCC(=O)N[C@@H](C)C(=O)N[C@@H](CCC(=O)O)C(=O)N[C@@H](CO)C(=O)N[C@@H](CCCCNC(=O)COCCOCCNC(=O)COCCOCCNC(=O)CC[C@H](NC(=O)CCCCCCCCCCCCCCC(=O)O)C(=O)O)C(N)=O)[C@@H](C)O)NC(=O)[C@H](CCCNC(=N)N)NC(=O)[C@H](Cc2c[nH]cn2)NC(=O)[C@H](CCC(=O)O)NC(=O)CNC(=O)[C@H](Cc2c[nH]c3ccccc23)NC(=O)[C@H](CC(=O)O)NC(=O)[C@H](CCC(N)=O)NC(=O)[C@H](Cc2cn(C)c3ccccc23)NC1=O [Compound 102] (Ac-FCI[Trp(1-Me)]QDWGEHRCTGAESK([AEEA-AEEA-γGlu-C16 diacid])-NH2; disulfide 2-12),< 100 nM,"− (denotes lack of solubility at the given condition, as UV absorbance at 340 nm exceeds 0.1 AU and/or it is visibly turbid or contains particles.)","+ (denotes solubility at the given condition, as determined by UV absorbance being less than 0.1 AU at 340 nm and the sample being clear when manually inspected.)","+ (denotes solubility at the given condition, as determined by UV absorbance being less than 0.1 AU at 340 nm and the sample being clear when manually inspected.)","+ (denotes solubility at the given condition, as determined by UV absorbance being less than 0.1 AU at 340 nm and the sample being clear when manually inspected.)","+ (denotes solubility at the given condition, as determined by UV absorbance being less than 0.1 AU at 340 nm and the sample being clear when manually inspected.)"
"CC[C@H](C)[C@@H]1NC(=O)[C@@H](NC(=O)[C@H](Cc2ccc(O)cc2)NC(=O)[C@H](C)NC(=O)[C@H](CO)NC(=O)CNC(=O)[C@H](CCC(=O)O)NC(C)=O)CSSC[C@@H](C(=O)N(C)CC(=O)N[C@@H](CCC(=O)O)C(N)=O)NC(=O)[C@H](CCCCNC(=O)COCCOCCNC(=O)COCCOCCNC(=O)CC[C@H](NC(=O)CCCCCCCCCCCCCCC(=O)O)C(=O)O)NC(=O)[C@H](Cc2c[nH]cn2)NC(=O)[C@H](CCC(=O)O)NC(=O)CNC(=O)[C@H](Cc2c[nH]c3ccccc23)NC(=O)[C@H](CC(=O)O)NC(=O)[C@H](CCC(N)=O)NC(=O)[C@H](Cc2cn(C)c3ccccc23)NC1=O [Compound 103, Ac-EGSAYC(1)I[1-Me-Trp]QDWGEH-[K([15-carboxy-pentadecanoyl][γGlu][Peg3][Peg3])]-C(1)[Sar]E-NH2] (Ac-EGSAYCI[Trp(1-Me)]QDWGEHK([AEEA-AEEA-γGlu-C16 diacid])C[Sar]E-NH2; disulfide 6-16)",< 100 nM,"− (denotes lack of solubility at the given condition, as UV absorbance at 340 nm exceeds 0.1 AU and/or it is visibly turbid or contains particles.)","+ (denotes solubility at the given condition, as determined by UV absorbance being less than 0.1 AU at 340 nm and the sample being clear when manually inspected.)","+ (denotes solubility at the given condition, as determined by UV absorbance being less than 0.1 AU at 340 nm and the sample being clear when manually inspected.)","+ (denotes solubility at the given condition, as determined by UV absorbance being less than 0.1 AU at 340 nm and the sample being clear when manually inspected.)","+ (denotes solubility at the given condition, as determined by UV absorbance being less than 0.1 AU at 340 nm and the sample being clear when manually inspected.)"
CC[C@H](C)[C@@H]1NC(=O)[C@@H](NC(=O)[C@H](Cc2ccc(O)cc2)NC(=O)[C@H](CCC(=O)O)NC(=O)[C@H](CO)NC(=O)CNC(=O)[C@H](CCC(=O)O)NC(=O)CCCCCCCCCCCCCCCCC(=O)O)CSSC[C@@H](C(=O)N(C)CC(=O)N[C@@H](CCC(=O)O)C(N)=O)NC(=O)[C@H](CCCNC(=N)N)NC(=O)[C@H](Cc2c[nH]cn2)NC(=O)[C@H](CCC(=O)O)NC(=O)CNC(=O)[C@H](Cc2c[nH]c3ccccc23)NC(=O)[C@H](CC(=O)O)NC(=O)[C@H](CCC(N)=O)NC(=O)[C@H](Cc2cn(C)c3ccccc23)NC1=O [Compound 108] ({C18 diacid}-EGSEYCI[Trp(1-Me)]QDWGEHRC[Sar]E-NH2; disulfide 6-16),< 500 nM,"− (denotes lack of solubility at the given condition, as UV absorbance at 340 nm exceeds 0.1 AU and/or it is visibly turbid or contains particles.)","− (denotes lack of solubility at the given condition, as UV absorbance at 340 nm exceeds 0.1 AU and/or it is visibly turbid or contains particles.)","+ (denotes solubility at the given condition, as determined by UV absorbance being less than 0.1 AU at 340 nm and the sample being clear when manually inspected.)","+ (denotes solubility at the given condition, as determined by UV absorbance being less than 0.1 AU at 340 nm and the sample being clear when manually inspected.)","+ (denotes solubility at the given condition, as determined by UV absorbance being less than 0.1 AU at 340 nm and the sample being clear when manually inspected.)"
CC[C@H](C)[C@@H]1NC(=O)[C@@H](NC(=O)[C@H](Cc2ccc(O)cc2)NC(=O)[C@H](C)NC(=O)[C@H](CO)NC(=O)CNC(=O)[C@H](CCC(=O)O)NC(C)=O)CSSC[C@@H](C(=O)N(C)CC(=O)N[C@@H](CCC(=O)O)C(=O)NCC(=O)N[C@@H](CCC(=O)O)C(=O)N[C@@H](CCCCNC(=O)CC[C@H](NC(=O)CNC(=O)CC[C@H](NC(=O)CCCCCCCCCCCCCCCCC(=O)O)C(=O)O)C(=O)O)C(N)=O)NC(=O)[C@H](CCCNC(=N)N)NC(=O)[C@H](Cc2c[nH]cn2)NC(=O)[C@H](CCC(=O)O)NC(=O)CNC(=O)[C@H](Cc2c[nH]c3ccccc23)NC(=O)[C@H](CC(=O)O)NC(=O)[C@H](CCC(N)=O)NC(=O)[C@H](Cc2cn(C)c3ccccc23)NC1=O [Compound 109] (Ac-EGSAYCI[Trp(1-Me)]QDWGEHRC[Sar]EGEK([γGlu-Gly-γGlu-C18 diacid])-NH2; disulfide 6-16),< 250 nM,"− (denotes lack of solubility at the given condition, as UV absorbance at 340 nm exceeds 0.1 AU and/or it is visibly turbid or contains particles.)","+ (denotes solubility at the given condition, as determined by UV absorbance being less than 0.1 AU at 340 nm and the sample being clear when manually inspected.)","+ (denotes solubility at the given condition, as determined by UV absorbance being less than 0.1 AU at 340 nm and the sample being clear when manually inspected.)","+ (denotes solubility at the given condition, as determined by UV absorbance being less than 0.1 AU at 340 nm and the sample being clear when manually inspected.)","+ (denotes solubility at the given condition, as determined by UV absorbance being less than 0.1 AU at 340 nm and the sample being clear when manually inspected.)"
